Here are results for 6 compounds from PubChem BioAssay (NCI).

What all share (experiment): growth of human tumour cells (NCI), 48 h
In assay [1] the test system is NCI-H23 lung.
The test system of assay [2] is LOX IMVI melanoma.
Assay [3] concerns MDA-MB-231 breast.
Assay [4] has as its system HCC-2998 colon.
Assay [5] relates to HS 578T breast.
Assay [6] concerns MCF7 breast.
For assay [7], the system named is RPMI-8226 leukemia.
Assay [8] concerns UACC-257 melanoma.
In assay [9] the test system is SNB-75 CNS.
The test system of assay [10] is HCT-116 colon.

Structures are written as SMILES.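 All cell lines were grown in 96-well plates and treated with compound for 48 hours. The concentration for 50% growth inhibition is given as GI50. Definition used: TGI = concentration required for complete inhibition of growth.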 A value given as a limit tells only on which side of the number the result lay.

As to `O=C(CNc1ccc(Cl)cc1)Nc1ccc(-c2nc3ccccc3s2)cc1`, the GI50 in assay [1] was 2.9 µM; in assay [2] it was 1.44 µM; in assay [3], 3.67 µM; in assay [4] it was 2.12 µM; in assay [5], 7.87 µM; in assay [6], 0.0697 µM. Also, the GI50 in assay [7] was 2.82 µM; in assay [8], 7.7 µM; in assay [9] it was 3.39 µM; in assay [10], 1.74 µM. Also, the TGI in [1] is 8.8 µM; in [2], 2.95 µM; in assay [3] it was 14.7 µM; in [4], 4.24 µM; in assay [5], 47.6 µM; in assay [6], 6.5 µM. For the same compound, the TGI in [7] was determined as 16 µM; in assay [8] it was 21.6 µM; in assay [9], 14.8 µM; in [10] it was 3.76 µM.

Take `O=C1NC(=O)C(c2cnc3ccccn23)=C1c1cn2c3c(cc(F)cc13)CN(C(=O)N1CCCCC1)CC2`: the GI50 is 17.2 µM in assay [1]; 11.4 µM in assay [3]; 14.6 µM in [4]; 0.0115 µM in assay [5]; less than 0.01 µM in assay [6]; 15.9 µM in assay [7]. Besides, the GI50 in assay [8] was 18.1 µM; in [10] it was 3.35 µM. Moreover, the TGI in [1] turned out to be 52.3 µM; in [2], 15.8 µM; in assay [3], 33.1 µM; in [4] it was 32.8 µM; in assay [5], 60.9 µM; in assay [6], 21.1 µM. In addition, the TGI in assay [7] is 46.6 µM; in assay [8], 40.4 µM; in assay [9] it was 46.3 µM; in assay [10] it was greater than 89.8 µM.

Regarding `CCOC(=O)CCCn1c(SC)nc2[nH]cc(-c3ccccc3)c2c1=O`, the GI50 in [1] is 11.6 µM; in assay [2], 11.3 µM; in assay [3] it was 25.8 µM; in [4], greater than 100 µM; in assay [5], 23.8 µM; in [6] it was 18.4 µM. Besides, the GI50 is 14.6 µM in assay [7], 22.7 µM in assay [8], 15.1 µM in assay [9] and 14.1 µM in [10]. The TGI was 34.6 µM in assay [1]; 25.8 µM in assay [2]; 66.7 µM in [3]; greater than 100 µM in assay [4]; 77.4 µM in assay [5]; 76.6 µM in assay [6]. For the same compound, the TGI in assay [7] is 36.3 µM; in assay [8], 44.3 µM; in [9] it was 40.1 µM; in assay [10], 34 µM.

Regarding `Cn1cc(CO)c2c1C(=O)C=C(N1CC1)C2=O`, the GI50 in assay [1] was less than 0.01 µM; in assay [2], less than 0.01 µM; in [3], 2.66 µM; in [4], less than 0.0122 µM; in assay [5], 0.017 µM; in assay [6], less than 0.01 µM. In addition, the GI50 in assay [7] was less than 0.01 µM; in assay [8] it was 0.0198 µM; in [9], less than 0.01 µM; in [10] it was less than 0.0106 µM. Moreover, the TGI was less than 0.0215 µM in assay [1]; 0.0184 µM in assay [2]; 5.96 µM in assay [3]; 0.049 µM in assay [4]; 0.0472 µM in assay [5]; 0.192 µM in assay [7]. Also, the TGI in assay [8] came out at 0.0692 µM; in assay [9], 0.0444 µM.

Turning to `OC[C@H]1C[C@](O)(c2ccc(Cl)cc2)[C@@H](c2ccc(Cl)cc2)O1`, the GI50 is 24.8 µM in assay [1]; 17.9 µM in [2]; 19.6 µM in [3]; 23.8 µM in [4]; 18 µM in [5]; 30 µM in assay [6]. For the same compound, the GI50 was 13.7 µM in [7], 21.2 µM in assay [8], 22.9 µM in [9] and 17.3 µM in assay [10]. The TGI in [1] is 58.2 µM; in assay [2], 34.8 µM; in assay [3], 46.9 µM; in assay [4], 52.9 µM; in assay [5], 45.6 µM; in [6] it was 72.8 µM. The TGI in assay [7] was 34.9 µM; in [8], 44.7 µM; in [9], 87.7 µM; in assay [10], 35.6 µM.

Regarding `CCCCCCNC(=O)c1cc(NCc2cc(O)ccc2O)ccc1O`, the GI50 in assay [1] was 13.1 µM; in assay [2], 6.84 µM; in [3], 2.78 µM; in [4], 16.1 µM; in [5], 15.1 µM; in assay [6], 5.01 µM. Further, the GI50 was 0.371 µM in assay [7], 14.1 µM in assay [8], 4.63 µM in assay [9] and 4.75 µM in assay [10]. Moreover, the TGI in [1] was 33.1 µM; in assay [2] it was 22.4 µM; in assay [3] it was 10.4 µM; in [4], 31 µM; in [5] it was greater than 100 µM; in assay [6], 27.7 µM. In addition, the TGI in [7] was found to be 6.47 µM; in assay [8] it was 30.4 µM; in assay [9], 21.1 µM; in assay [10] it was 24.9 µM.
